These are literature values, as cited in patent US20210315915A1, “PHARMACEUTICAL COMPOSITIONS OF RIBAVIRIN” (GlaxoSmithKline Intellectual Property (No.2) Limited, priority 2015, published 2021).

SMILES strings stand for the structures.

For data set [1] the following is noted: crystalline white powder.
For data set [2] the following is noted: FDA approved labeling of Rebetol.

Take `NC(=O)c1ncn([C@@H]2O[C@H](CO)[C@@H](O)[C@H]2O)n1` [ribavirin, 1-β-D-ribofuranosyl-1H-1,2,4-triazole-3-carboxamide]: in data set [1], the “solubility in ethanol (96%)” value is given as “slightly soluble” and the solubility in water entry is given as “freely soluble”. In data set [2], the multiple-dose half-life was 12 days and the “persistence in nonplasma compartments” value is at most 6 months.
